From publication PMC4579270, “Identification and Characterization of an Irreversible Inhibitor of CDK2” (Chemistry & Biology, 2015)

What was measured:
Test in all cases: Dundee protein kinase screen
Format in all cases: biochemical
[1] = target: SIK2 (Homo sapiens, UniProt Q9H0K1); details: SIK2, 1µM; read-out: %Remaining activity at 1µM NU6300
Description: (§1) Prior to determining its cellular activity, we carried out a screen to assess its selectivity against a panel of 131 protein kinases under conditions that would not distinguish between a reversible or irreversible mode of action. […] These 13 kinases and 29 additional kinases, selected for their known sensitivity to other inhibitors within the purine series, were then tested in a modified screening format in which the assay was repeated following a 4-hr pre-incubation (Table S3B). […] However, conformational flexibility around the active site may promote such an interaction with a residue from another part of the structure ([Martin et al., 2012]).
(§2) Table S3, Related to Figure 4. NCL-0006300 protein kinase selectivity. (A) NU6300 was tested at a single concentration of 1µM against 131 protein kinases present in a Dundee protein kinase screen (Bain et al., 2007). Values given are % activity remaining and are the average of duplicate measurements: 0-25% (red), 26-50% (yellow), 51-80% […]
(§3) (black) and above 81% (green). […]

[2] = target: PLK1 (Homo sapiens, UniProt P53350); details: PLK1, 1µM; read-out: %Remaining activity at 1µM NU6300
Sequence of PLK1 (P53350 whole entry): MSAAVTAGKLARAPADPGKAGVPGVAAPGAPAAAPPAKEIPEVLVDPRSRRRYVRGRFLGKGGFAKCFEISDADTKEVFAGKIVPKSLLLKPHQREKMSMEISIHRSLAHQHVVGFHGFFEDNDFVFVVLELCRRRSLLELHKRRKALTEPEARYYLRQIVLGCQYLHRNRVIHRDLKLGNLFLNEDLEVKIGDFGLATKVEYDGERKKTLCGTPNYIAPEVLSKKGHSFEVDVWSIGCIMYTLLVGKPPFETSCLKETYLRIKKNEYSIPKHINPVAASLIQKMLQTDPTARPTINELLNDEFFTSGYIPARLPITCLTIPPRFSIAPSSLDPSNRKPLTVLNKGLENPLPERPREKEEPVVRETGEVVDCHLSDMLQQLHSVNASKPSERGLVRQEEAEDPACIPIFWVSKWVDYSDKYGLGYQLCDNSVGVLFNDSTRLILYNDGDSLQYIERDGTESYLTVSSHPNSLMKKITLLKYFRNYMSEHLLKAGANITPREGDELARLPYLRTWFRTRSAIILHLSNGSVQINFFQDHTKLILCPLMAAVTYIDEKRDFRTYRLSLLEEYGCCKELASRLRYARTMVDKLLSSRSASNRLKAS
Description: as §1, §2, §3

[3] = target: SYK (Homo sapiens, UniProt P43405); details: read-out: %Remaining activity at 1µM NU6300
Description: as §1, §2, §3

[4] = target: PKCγ (Homo sapiens, UniProt P05129); details: read-out: %Remaining activity at 1µM NU6300
Description: as §1, §2, §3

[5] = target: YES1 (Homo sapiens, UniProt P07947); details: YES1, 1µM; read-out: %Remaining activity at 1µM NU6300
Description: as §1, §2, §3

[6] = target: PIM2 (Homo sapiens, UniProt Q9P1W9); details: PIM2, 1µM; read-out: %Remaining activity at 1µM NU6300
Description: as §1, §2, §3

[7] = target: PAK6 (Homo sapiens, UniProt Q9NQU5); details: PAK6, 1µM; read-out: %Remaining activity at 1µM NU6300
Sequence of PAK6 (Q9NQU5 whole entry): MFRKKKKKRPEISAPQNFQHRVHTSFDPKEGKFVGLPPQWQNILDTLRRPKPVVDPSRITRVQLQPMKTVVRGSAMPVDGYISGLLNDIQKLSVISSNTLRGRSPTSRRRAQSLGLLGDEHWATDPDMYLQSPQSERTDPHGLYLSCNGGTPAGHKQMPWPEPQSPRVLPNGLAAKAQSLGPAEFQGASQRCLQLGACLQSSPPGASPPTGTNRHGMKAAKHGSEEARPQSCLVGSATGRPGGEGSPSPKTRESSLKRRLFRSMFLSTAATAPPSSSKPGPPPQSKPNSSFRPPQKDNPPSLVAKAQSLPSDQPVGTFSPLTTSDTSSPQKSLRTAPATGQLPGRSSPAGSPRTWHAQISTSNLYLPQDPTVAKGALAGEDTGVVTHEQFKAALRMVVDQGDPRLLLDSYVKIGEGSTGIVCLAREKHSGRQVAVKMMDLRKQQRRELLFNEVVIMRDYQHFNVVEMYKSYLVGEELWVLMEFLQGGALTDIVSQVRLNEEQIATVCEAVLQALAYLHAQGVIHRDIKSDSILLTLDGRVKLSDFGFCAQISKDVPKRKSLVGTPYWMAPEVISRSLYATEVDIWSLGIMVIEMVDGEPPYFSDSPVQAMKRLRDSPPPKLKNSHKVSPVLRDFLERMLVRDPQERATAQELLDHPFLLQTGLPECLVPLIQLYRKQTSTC
Description: as §1, §2, §3

[8] = target: TLK1 (Homo sapiens, UniProt Q9UKI8); details: TLK1, 1µM; read-out: %Remaining activity at 1µM NU6300
Sequence of TLK1 (Q9UKI8 whole entry): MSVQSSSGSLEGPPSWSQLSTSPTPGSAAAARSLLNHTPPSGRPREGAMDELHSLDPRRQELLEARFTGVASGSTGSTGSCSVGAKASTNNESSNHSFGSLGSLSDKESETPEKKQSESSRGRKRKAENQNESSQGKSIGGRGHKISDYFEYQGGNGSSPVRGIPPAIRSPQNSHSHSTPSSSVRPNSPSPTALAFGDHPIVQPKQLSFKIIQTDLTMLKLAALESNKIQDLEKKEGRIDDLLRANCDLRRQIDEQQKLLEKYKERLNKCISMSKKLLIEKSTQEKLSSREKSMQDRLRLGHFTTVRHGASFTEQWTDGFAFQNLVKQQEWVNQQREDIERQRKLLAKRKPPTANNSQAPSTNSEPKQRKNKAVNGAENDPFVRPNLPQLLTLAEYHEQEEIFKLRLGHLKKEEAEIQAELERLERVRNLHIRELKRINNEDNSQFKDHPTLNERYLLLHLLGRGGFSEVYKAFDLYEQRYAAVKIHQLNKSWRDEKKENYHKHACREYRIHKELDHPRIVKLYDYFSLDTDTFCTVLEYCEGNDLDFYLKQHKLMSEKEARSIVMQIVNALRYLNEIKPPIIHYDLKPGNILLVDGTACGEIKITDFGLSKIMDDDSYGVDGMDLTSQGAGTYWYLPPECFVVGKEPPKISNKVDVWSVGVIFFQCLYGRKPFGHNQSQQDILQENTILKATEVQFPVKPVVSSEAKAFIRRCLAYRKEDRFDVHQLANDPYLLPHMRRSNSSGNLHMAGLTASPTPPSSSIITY
Description: as §1, §2, §3

[9] = target: T1, TBK1 (Homo sapiens, UniProt Q9UHD2); details: TBK1, 1µM; read-out: %Remaining activity at 1µM NU6300
T1 sequence (Q9UHD2 1-729): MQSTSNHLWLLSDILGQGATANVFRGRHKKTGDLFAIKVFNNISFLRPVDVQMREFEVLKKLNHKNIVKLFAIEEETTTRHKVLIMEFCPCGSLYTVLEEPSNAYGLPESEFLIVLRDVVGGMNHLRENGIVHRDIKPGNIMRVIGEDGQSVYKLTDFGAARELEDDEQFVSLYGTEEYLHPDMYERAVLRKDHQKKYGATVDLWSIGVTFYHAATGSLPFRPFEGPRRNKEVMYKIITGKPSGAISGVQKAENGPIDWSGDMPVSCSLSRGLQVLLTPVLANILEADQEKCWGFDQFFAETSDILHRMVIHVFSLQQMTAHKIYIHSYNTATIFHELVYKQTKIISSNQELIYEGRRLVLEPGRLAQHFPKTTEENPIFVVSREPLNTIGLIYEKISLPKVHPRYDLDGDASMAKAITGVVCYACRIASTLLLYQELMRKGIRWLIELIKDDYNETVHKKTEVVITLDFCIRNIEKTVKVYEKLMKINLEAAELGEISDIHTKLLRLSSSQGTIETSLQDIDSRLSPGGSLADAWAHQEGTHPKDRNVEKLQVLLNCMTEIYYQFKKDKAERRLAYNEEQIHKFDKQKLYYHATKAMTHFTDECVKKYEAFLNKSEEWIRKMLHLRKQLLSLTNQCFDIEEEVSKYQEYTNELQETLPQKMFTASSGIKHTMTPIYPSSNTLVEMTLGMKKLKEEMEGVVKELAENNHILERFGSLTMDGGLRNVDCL
Description: as §1, §2, §3

[10] = target: MST4 (Homo sapiens, UniProt Q9P289); details: MST4, 1µM; read-out: %Remaining activity at 1µM NU6300
Description: as §1, §2, §3

[11] = target: RSK2 (Homo sapiens, UniProt P51812); details: RSK2, 1µM; read-out: %Remaining activity at 1µM NU6300
Sequence of RSK2 (P51812 whole entry): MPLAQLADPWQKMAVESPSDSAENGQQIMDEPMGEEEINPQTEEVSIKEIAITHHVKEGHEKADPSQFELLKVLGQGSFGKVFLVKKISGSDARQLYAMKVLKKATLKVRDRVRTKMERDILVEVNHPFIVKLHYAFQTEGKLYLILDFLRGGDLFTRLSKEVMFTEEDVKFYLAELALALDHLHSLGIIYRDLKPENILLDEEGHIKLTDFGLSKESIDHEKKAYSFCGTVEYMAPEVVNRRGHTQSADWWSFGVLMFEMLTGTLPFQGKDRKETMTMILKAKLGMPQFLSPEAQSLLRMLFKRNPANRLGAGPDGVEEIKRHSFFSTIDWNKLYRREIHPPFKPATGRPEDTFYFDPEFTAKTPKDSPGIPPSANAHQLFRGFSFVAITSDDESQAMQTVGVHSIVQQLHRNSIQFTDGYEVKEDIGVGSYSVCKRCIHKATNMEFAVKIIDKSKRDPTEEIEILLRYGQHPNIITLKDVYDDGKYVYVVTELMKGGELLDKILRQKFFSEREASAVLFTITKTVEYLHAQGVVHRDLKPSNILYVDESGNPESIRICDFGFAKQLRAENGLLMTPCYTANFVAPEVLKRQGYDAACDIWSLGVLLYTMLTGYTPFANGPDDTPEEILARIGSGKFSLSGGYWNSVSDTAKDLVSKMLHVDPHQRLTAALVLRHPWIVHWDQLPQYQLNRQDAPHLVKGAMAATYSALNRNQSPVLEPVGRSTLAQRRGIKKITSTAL
Description: as §1, §2, §3

[12] = target: PKD1 (Homo sapiens, UniProt Q15139); details: PKD1, 1µM; read-out: %Remaining activity at 1µM NU6300
Sequence of PKD1 (Q15139 whole entry): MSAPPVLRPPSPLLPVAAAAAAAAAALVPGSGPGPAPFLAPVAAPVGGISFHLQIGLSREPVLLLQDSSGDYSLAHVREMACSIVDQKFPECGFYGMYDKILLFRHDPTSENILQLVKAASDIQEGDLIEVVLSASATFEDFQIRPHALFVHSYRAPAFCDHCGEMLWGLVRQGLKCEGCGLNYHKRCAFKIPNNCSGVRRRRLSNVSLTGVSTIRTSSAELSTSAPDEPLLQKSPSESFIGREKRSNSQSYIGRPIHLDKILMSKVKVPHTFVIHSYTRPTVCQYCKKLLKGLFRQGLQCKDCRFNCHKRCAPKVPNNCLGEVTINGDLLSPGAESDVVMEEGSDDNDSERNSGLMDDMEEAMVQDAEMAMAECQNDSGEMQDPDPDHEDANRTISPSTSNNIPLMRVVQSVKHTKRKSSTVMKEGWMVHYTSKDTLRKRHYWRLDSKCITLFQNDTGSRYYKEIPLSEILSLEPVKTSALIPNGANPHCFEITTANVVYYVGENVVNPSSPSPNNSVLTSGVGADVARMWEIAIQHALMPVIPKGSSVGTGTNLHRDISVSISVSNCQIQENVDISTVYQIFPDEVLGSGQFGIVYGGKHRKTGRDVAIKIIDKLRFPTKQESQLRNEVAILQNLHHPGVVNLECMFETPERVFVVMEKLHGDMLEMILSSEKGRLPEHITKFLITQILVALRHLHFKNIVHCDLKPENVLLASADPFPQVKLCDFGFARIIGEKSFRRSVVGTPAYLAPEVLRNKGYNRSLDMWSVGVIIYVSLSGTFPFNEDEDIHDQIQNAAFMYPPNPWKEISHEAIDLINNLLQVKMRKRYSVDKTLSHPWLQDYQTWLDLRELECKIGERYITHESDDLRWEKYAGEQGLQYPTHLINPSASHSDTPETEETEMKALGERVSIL
Description: as §1, §2, §3

[13] = target: MST3 (Homo sapiens, UniProt Q9Y6E0); details: MST3, 1µM; read-out: %Remaining activity at 1µM NU6300
Sequence of MST3 (Q9Y6E0 whole entry): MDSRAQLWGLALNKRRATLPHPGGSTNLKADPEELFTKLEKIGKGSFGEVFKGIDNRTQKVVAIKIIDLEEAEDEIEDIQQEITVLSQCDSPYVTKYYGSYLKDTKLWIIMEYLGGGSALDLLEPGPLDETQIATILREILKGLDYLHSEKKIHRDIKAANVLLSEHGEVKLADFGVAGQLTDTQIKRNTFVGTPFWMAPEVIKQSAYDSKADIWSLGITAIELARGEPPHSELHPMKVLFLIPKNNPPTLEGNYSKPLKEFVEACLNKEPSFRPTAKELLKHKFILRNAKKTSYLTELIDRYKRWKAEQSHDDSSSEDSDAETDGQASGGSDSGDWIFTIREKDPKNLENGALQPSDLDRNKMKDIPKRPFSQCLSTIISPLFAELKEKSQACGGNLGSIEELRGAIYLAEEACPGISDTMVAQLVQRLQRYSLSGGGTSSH
Description: as §1, §2, §3

[14] = target: STK33 (Homo sapiens, UniProt Q9BYT3); details: STK33, 1µM; read-out: %Remaining activity at 1µM NU6300
Description: as §1, §2, §3

[15] = target: Src (Homo sapiens, UniProt P12931); details: read-out: %Remaining activity at 1µM NU6300
Description: as §1, §2, §3

[16] = system: PHK
Description: as §1, §2, §3

[17] = target: NEK2a (Homo sapiens, UniProt P51955); details: read-out: %Remaining activity at 1µM NU6300
Description: as §1, §2, §3

[18] = target: OSR1 (Homo sapiens, UniProt O95747); details: OSR1, 1µM; read-out: %Remaining activity at 1µM NU6300
Description: as §1, §2, §3

Sequence of SIK2 (Q9H0K1 whole entry): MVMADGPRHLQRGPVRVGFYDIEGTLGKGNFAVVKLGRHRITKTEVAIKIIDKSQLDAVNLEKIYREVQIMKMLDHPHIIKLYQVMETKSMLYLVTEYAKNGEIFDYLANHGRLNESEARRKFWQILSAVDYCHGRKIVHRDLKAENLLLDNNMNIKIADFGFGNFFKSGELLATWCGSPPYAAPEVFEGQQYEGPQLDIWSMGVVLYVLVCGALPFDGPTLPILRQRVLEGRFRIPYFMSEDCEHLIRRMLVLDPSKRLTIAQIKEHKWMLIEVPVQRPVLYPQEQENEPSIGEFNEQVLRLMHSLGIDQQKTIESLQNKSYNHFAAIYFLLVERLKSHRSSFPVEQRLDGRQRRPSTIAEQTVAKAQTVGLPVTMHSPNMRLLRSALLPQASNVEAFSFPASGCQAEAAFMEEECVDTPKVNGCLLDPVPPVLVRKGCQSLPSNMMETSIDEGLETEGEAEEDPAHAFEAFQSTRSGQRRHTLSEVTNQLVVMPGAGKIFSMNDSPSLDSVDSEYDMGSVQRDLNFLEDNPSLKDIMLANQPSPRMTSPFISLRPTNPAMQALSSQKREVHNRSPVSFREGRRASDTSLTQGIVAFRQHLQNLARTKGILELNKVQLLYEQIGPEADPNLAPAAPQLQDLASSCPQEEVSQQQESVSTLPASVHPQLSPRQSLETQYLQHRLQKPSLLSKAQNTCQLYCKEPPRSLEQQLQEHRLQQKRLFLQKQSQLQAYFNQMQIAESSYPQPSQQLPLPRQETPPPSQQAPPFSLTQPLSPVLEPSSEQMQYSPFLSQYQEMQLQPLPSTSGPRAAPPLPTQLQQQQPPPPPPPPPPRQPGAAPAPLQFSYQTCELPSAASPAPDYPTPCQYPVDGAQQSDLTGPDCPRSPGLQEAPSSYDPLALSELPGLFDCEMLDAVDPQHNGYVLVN

C=CS(=O)(=O)c1ccc(Nc2nc(OCC3CCCCC3)c3nc[nH]c3n2)cc1 [NU6300, 6-(cyclohexylmethoxy)-N-(4-(vinylsulfonyl)phenyl)-9H-purin-2-amine]
remaining activity at 1 µM [1]: 22% | remaining activity at 1 µM [2]: 90% | remaining activity at 1 µM [3]: 58% | remaining activity at 1 µM [4]: 104% | remaining activity at 1 µM [5]: 17% | remaining activity at 1 µM [6]: 96% | remaining activity at 1 µM [7]: 73% | remaining activity at 1 µM [8]: 52% | remaining activity at 1 µM [9]: 45% | remaining activity at 1 µM [10]: 39% | remaining activity at 1 µM [11]: 54% | remaining activity at 1 µM [12]: 55% | remaining activity at 1 µM [13]: 54% | remaining activity at 1 µM [14]: 59% | remaining activity at 1 µM [15]: 39% | %Remaining activity at 1µM NU6300 [16]: 69% | remaining activity at 1 µM [17]: 55% | remaining activity at 1 µM [18]: 67%
